From the supplement of paper PMC6045584
± gives the standard deviation of the averaged measurements.

Columns and labels:
[1] = compound: C[C@@H](Oc1cc(-c2cnn(C3CCNCC3)c2)cnc1N)c1c(Cl)ccc(F)c1Cl; assay: surviving fraction relative to DMSO-only wells; higher = less growth inhibition; details: exposure time: 5 days
Procedure, shortened: (§1)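 Inhibitors at 0.5, 1, 5, 10, 50, 100, 500 and 1000 nM were applied continuously for five days to tumour cell lines seeded in log phase at 250–500 cells per well in 384-well plates 24 hours earlier. Viability was measured by CellTiter-Glo luminescence and expressed as surviving fraction relative to the median of DMSO-only wells. Luminescence was taken after 10 minutes at room temperature.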

SORAFENIB = compound: CNC(=O)c1cc(Oc2ccc(NC(=O)Nc3ccc(Cl)c(C(F)(F)F)c3)cc2)ccn1 [SORAFENIB]; assay: as above; details: exposure time: 5 days
Procedure, shortened: as §1

SG43 HEADNECK
surviving fraction ([1]; 0.5 nM): 1.14 ± 0.1
surviving fraction ([1]; 1 nM): 1.22 ± 0.16
surviving fraction ([1]; 10 nM): 1.09 ± 0.22
surviving fraction ([1]; 50 nM): 0.946 ± 0.37
surviving fraction ([1]; 100 nM): 0.816 ± 0.13
surviving fraction ([1]; 500 nM): 0.564 ± 0.14
surviving fraction ([1]; 1000 nM): 0.256 ± 0.082
surviving fraction (SORAFENIB; 0.5 nM): 0.959 ± 0.085
surviving fraction (SORAFENIB; 1 nM): 1.19 ± 0.13
surviving fraction (SORAFENIB; 10 nM): 0.97 ± 0.082
surviving fraction (SORAFENIB; 50 nM): 1.18 ± 0.14
surviving fraction (SORAFENIB; 100 nM): 1.4 ± 0.095
surviving fraction (SORAFENIB; 500 nM): 1.98 ± 0.15
surviving fraction (SORAFENIB; 1000 nM): 2.18 ± 0.21

SIHA CERVIX
surviving fraction ([1]; 0.5 nM): 0.92 ± 0.038
surviving fraction ([1]; 1 nM): 0.931 ± 0.01
surviving fraction ([1]; 10 nM): 0.931 ± 0.034
surviving fraction ([1]; 50 nM): 0.99 ± 0.011
surviving fraction ([1]; 100 nM): 1.07 ± 0.068
surviving fraction ([1]; 500 nM): 0.676 ± 0.042
surviving fraction ([1]; 1000 nM): 0.628 ± 0.075
surviving fraction (SORAFENIB; 0.5 nM): 1.04 ± 0.085
surviving fraction (SORAFENIB; 1 nM): 1.16 ± 0.11
surviving fraction (SORAFENIB; 5 nM): 1.089 ± 0.01
surviving fraction (SORAFENIB; 10 nM): 1.13 ± 0.077
surviving fraction (SORAFENIB; 100 nM): 1.15 ± 0.043
surviving fraction (SORAFENIB; 500 nM): 1.17 ± 0.16
surviving fraction (SORAFENIB; 1000 nM): 1.17 ± 0.15

SJSA1 BONE
surviving fraction ([1]; 0.5 nM): 0.881 ± 0.019
surviving fraction ([1]; 1 nM): 0.9053 ± 0.0031
surviving fraction ([1]; 5 nM): 0.912 ± 0.062
surviving fraction ([1]; 10 nM): 0.935 ± 0.023
surviving fraction ([1]; 50 nM): 1.06 ± 0.069
surviving fraction ([1]; 100 nM): 1.05 ± 0.05
surviving fraction ([1]; 500 nM): 0.889 ± 0.053
surviving fraction ([1]; 1000 nM): 0.622 ± 0.0085
surviving fraction (SORAFENIB; 0.5 nM): 1.02 ± 0.012
surviving fraction (SORAFENIB; 1 nM): 0.969 ± 0.036
surviving fraction (SORAFENIB; 5 nM): 0.985 ± 0.048
surviving fraction (SORAFENIB; 50 nM): 1.07 ± 0.041
surviving fraction (SORAFENIB; 100 nM): 1.03 ± 0.041
surviving fraction (SORAFENIB; 500 nM): 1 ± 0.11
surviving fraction (SORAFENIB; 1000 nM): 0.967 ± 0.026

SKBR3 BREAST
surviving fraction ([1]; 0.5 nM): 0.731 ± 0.039
surviving fraction ([1]; 1 nM): 0.814 ± 0.075
surviving fraction ([1]; 10 nM): 0.859 ± 0.071
surviving fraction ([1]; 50 nM): 0.997 ± 0.12
surviving fraction ([1]; 500 nM): 0.759 ± 0.035
surviving fraction (SORAFENIB; 0.5 nM): 1.12 ± 0.15
surviving fraction (SORAFENIB; 1 nM): 1.07 ± 0.22
surviving fraction (SORAFENIB; 5 nM): 0.978 ± 0.087
surviving fraction (SORAFENIB; 10 nM): 0.951 ± 0.16
surviving fraction (SORAFENIB; 50 nM): 0.96 ± 0.16
surviving fraction (SORAFENIB; 100 nM): 0.95 ± 0.1
surviving fraction (SORAFENIB; 500 nM): 1.08 ± 0.23
surviving fraction (SORAFENIB; 1000 nM): 1.1 ± 0.053

SNU475 LIVER
surviving fraction ([1]; 0.5 nM): 0.8177 ± 0.0046
surviving fraction ([1]; 5 nM): 0.829 ± 0.049
surviving fraction ([1]; 50 nM): 0.927 ± 0.039
surviving fraction ([1]; 500 nM): 0.853 ± 0.031
surviving fraction ([1]; 1000 nM): 0.662 ± 0.04
surviving fraction (SORAFENIB; 0.5 nM): 1.08 ± 0.036
surviving fraction (SORAFENIB; 5 nM): 1.04 ± 0.03
surviving fraction (SORAFENIB; 10 nM): 1.05 ± 0.032
surviving fraction (SORAFENIB; 500 nM): 1.17 ± 0.031
surviving fraction (SORAFENIB; 1000 nM): 1.07 ± 0.042

SUM44 BREAST
surviving fraction ([1]; 0.5 nM): 0.865 ± 0.038
surviving fraction ([1]; 1 nM): 0.874 ± 0.056
surviving fraction ([1]; 5 nM): 0.983 ± 0.021
surviving fraction ([1]; 10 nM): 0.935 ± 0.029
surviving fraction ([1]; 100 nM): 1.04 ± 0.026
surviving fraction ([1]; 500 nM): 0.892 ± 0.077
surviving fraction ([1]; 1000 nM): 0.798 ± 0.046
surviving fraction (SORAFENIB; 0.5 nM): 1.03 ± 0.035
surviving fraction (SORAFENIB; 1 nM): 0.99 ± 0.041
surviving fraction (SORAFENIB; 5 nM): 1.03 ± 0.051
surviving fraction (SORAFENIB; 10 nM): 1.04 ± 0.053
surviving fraction (SORAFENIB; 50 nM): 1.12 ± 0.035
surviving fraction (SORAFENIB; 100 nM): 1.11 ± 0.044
surviving fraction (SORAFENIB; 1000 nM): 0.974 ± 0.026

SUM149 BREAST
surviving fraction ([1]; 0.5 nM): 0.897 ± 0.12
surviving fraction ([1]; 1 nM): 0.877 ± 0.094
surviving fraction ([1]; 10 nM): 0.86 ± 0.045
surviving fraction ([1]; 100 nM): 0.893 ± 0.1
surviving fraction ([1]; 500 nM): 0.73 ± 0.064
surviving fraction ([1]; 1000 nM): 0.415 ± 0.029
surviving fraction (SORAFENIB; 0.5 nM): 1.18 ± 0.028
surviving fraction (SORAFENIB; 1 nM): 1.09 ± 0.048
surviving fraction (SORAFENIB; 100 nM): 1.17 ± 0.051
surviving fraction (SORAFENIB; 1000 nM): 1.278 ± 0.0084

SUM149.B1*.S BREAST
surviving fraction ([1]; 0.5 nM): 0.902 ± 0.028
surviving fraction ([1]; 1 nM): 0.898 ± 0.036
surviving fraction ([1]; 5 nM): 0.921 ± 0.037
surviving fraction ([1]; 10 nM): 0.904 ± 0.04
surviving fraction ([1]; 50 nM): 0.96 ± 0.032
surviving fraction ([1]; 100 nM): 0.929 ± 0.037
surviving fraction ([1]; 500 nM): 0.855 ± 0.056
surviving fraction ([1]; 1000 nM): 0.729 ± 0.051
surviving fraction (SORAFENIB; 0.5 nM): 1.1 ± 0.025
surviving fraction (SORAFENIB; 1 nM): 1.051 ± 0.004
surviving fraction (SORAFENIB; 5 nM): 1.08 ± 0.05
surviving fraction (SORAFENIB; 10 nM): 1.05 ± 0.033
surviving fraction (SORAFENIB; 100 nM): 1.202 ± 0.0063
surviving fraction (SORAFENIB; 500 nM): 0.807 ± 0.024
surviving fraction (SORAFENIB; 1000 nM): 0.609 ± 0.04
